Results as given in PubChem BioAssay (NCI).
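Dose response: 5 concentrations. Exposure: 48 h. Format: 96-well plates. Endpoint: linear interpolation; highest concentration if not reached. TGI: concentration producing complete growth inhibition.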

Assays:
Test in all cases: NCI-60 cell line screen, 48 h
[1] = tested on: UACC-257 melanoma
[2] = tested on: OVCAR-3 ovarian
[3] = tested on: HOP-62 NSCLC
[4] = tested on: MOLT-4 leukemia
[5] = tested on: SK-MEL-28 melanoma
[6] = tested on: OVCAR-8 ovarian
[7] = tested on: ACHN renal
[8] = tested on: M14 melanoma
[9] = tested on: TK-10 renal
[10] = tested on: MALME-3M melanoma
[11] = tested on: NCI-H226 lung
[12] = tested on: SW-620 colon
[13] = tested on: DMS 273 small cell lung
[14] = tested on: EKVX NSCLC
[15] = tested on: K-562 leukemia
[16] = tested on: U251 CNS
[17] = tested on: SNB-19 CNS
[18] = tested on: NCI-H23 lung
[19] = tested on: SR leukemia
[20] = tested on: UACC-62 melanoma
[21] = tested on: 786-0 renal
[22] = tested on: OVCAR-4 ovarian
[23] = tested on: RXF 393 renal
[24] = tested on: SNB-75 CNS
[25] = tested on: SF-295 CNS
[26] = tested on: CCRF-CEM leukemia
[27] = tested on: SF-268 CNS
[28] = tested on: HCC-2998 colon
[29] = tested on: XF 498 CNS
[30] = tested on: SNB-78 CNS
[31] = tested on: M19-MEL melanoma
[32] = tested on: COLO 205 colon
[33] = tested on: KM20L2 colon
[34] = tested on: DMS 114 small cell lung
[35] = tested on: IGROV1 ovarian
[36] = tested on: HCT-116 colon
[37] = tested on: A549 NSCLC
[38] = tested on: LXFL 529 NSCLC
[39] = tested on: HT29 colon
[40] = tested on: SK-MEL-2 melanoma
[41] = tested on: UO-31 renal
[42] = tested on: DLD-1 colon
[43] = tested on: SF-539 CNS
[44] = tested on: OVCAR-5 ovarian
[45] = tested on: SK-OV-3 ovarian
[46] = tested on: SK-MEL-5 melanoma
[47] = tested on: NCI-H522 lung
[48] = tested on: LOX IMVI melanoma
[49] = tested on: HOP-92 NSCLC
[50] = tested on: CAKI-1 renal
[51] = tested on: HL-60(TB) leukemia
[52] = tested on: KM12 colon
[53] = tested on: HOP-18 NSCLC
[54] = tested on: SN12C renal
[55] = tested on: A498 renal
[56] = tested on: RPMI-8226 leukemia
[57] = tested on: HCT-15 colon
[58] = tested on: NCI-H460 lung

Measured: TGI

CCOC(=N)CC(=O)c1ccccc1
> 100 µM: [1] | [2] | [3] | [4] | [5] | [6] | [7] | [8] | [9] | [10] | [11] | [12] | [13] | [14] | [15] | [16] | [17] | [18] | [19] | [20] | [21] | [22] | [23] | [24] | [25] | [26] | [27] | [28] | [29] | [30] | [31] | [32] | [33] | [34] | [35] | [36] | [37] | [38] | [39] | [40] | [41] | [42] | [43] | [44] | [45] | [46] | [47] | [48] | [49] | [50] | [51] | [52] | [53] | [54] | [55]

Cn1c(=O)c2nc(-c3ccc(Cl)cc3)oc2n(C)c1=O
> 100 µM: [56] | [1] | [2] | [4] | [5] | [6] | [7] | [8] | [9] | [10] | [11] | [12] | [13] | [14] | [57] | [15] | [16] | [17] | [18] | [19] | [20] | [21] | [22] | [23] | [24] | [25] | [26] | [27] | [28] | [29] | [30] | [31] | [33] | [34] | [36] | [37] | [38] | [39] | [40] | [41] | [42] | [43] | [44] | [46] | [47] | [58] | [48] | [49] | [50] | [51] | [52] | [53] | [54] | [55]
